Reference: patent US11718616B2, “JAK kinase inhibitor compounds for treatment of respiratory disease” (THERAVANCE BIOPHARMA R&D IP, LLC, priority 2015, dated 2023)

Experiments:
[1] = system: IL-13 induced pSTAT6 induction in lung tissue; assay: Murine model of IL-13 induced pSTAT6 induction in lung tissue; assay type: in vivo, mouse; conditions: for pSTAT6 inhibition in the pharmacodynamic assay: mouse lung, Assay 5 conditions; for lung concentration smaller than that of the corresponding compound of the invention by a factor of: mouse lung in pharmacodynamic assay, C-1 vs Example 1, C-2 vs 7, C-3 vs 13, C-4 vs 6
Protocol: Il-13 is an important cytokine underlying the pathophysiology of asthma (Kudlacz et al. Eur. J Pharmacol, 2008, 582, 154-161). IL-13 binds to cell surface receptors activating members of the Janus family of kinases (JAK) which then phosphorylate STAT6 and subsequently activates further transcription pathways. In the described model, a dose of IL-13 was delivered locally into the lungs of mice to induce the phosphorylation of STAT6 (pSTAT6) which is then measured as the endpoint.
Adult balb/c mice from Harlan were used in the assay. On the day of study, animals were lightly anesthetized with isoflurane and administered either vehicle or test compound (0.5 mg/mL, 50 μL total volume over several breaths) via oral aspiration. Animals were placed in lateral recumbency post dose and monitored for full recovery from anesthesia before being returned to their home cage. Four hours later, animals were once again briefly anesthetized and challenged with either vehicle or IL-13 (0.03 μg total dose delivered, 50 μL total volume) via oral aspiration before being monitored for recovery from anesthesia and returned to their home cage. One hour after vehicle or IL-13 administration, lungs were collected for both pSTAT6 detection using an anti-pSTAT6 ELISA (rabbit mAb capture/coating antibody; mouse mAb detection/report antibody: anti-pSTAT6-pY641; secondary antibody: anti-mouse IgG-HRP) and analyzed for total drug concentration as described above in Assay 4.
Selected compounds of the invention were tested in the assay. Activity in the model is evidenced by a decrease in the level of pSTAT6 present in the lungs of treated animals at 5 hours compared to the vehicle treated, IL-13 challenged control animals. The difference between the control animals which were vehicle-treated, IL-13 challenged and the control animals which were vehicle-treated, vehicle challenged dictated the 0% and 100% inhibitory effect, respectively, in any given experiment.

[2] = biological target: JAK1 (Homo sapiens (Human), UniProt P23458); assay: LanthaScreen JAK biochemical assay, JAK1; conditions: C-1 vs Example 1, C-2 vs 7, C-3 vs 13, C-4 vs 6
[3] = Dynamic moisture sorption assessment; assay type: physicochemical; conditions: humidity range of 5% to 90% relative humidity, about 25° C.
Protocol: Dynamic moisture sorption (DMS) measurement was performed using a VTI atmospheric microbalance, SGA-100 system (VTI Corp., Hialeah, Fla. 33016). A weighed sample was used and the humidity was lowest possible value (close to 0% RH) at the start of the analysis. The DMS analysis consisted of an initial drying step (˜0% RH) for 120 minutes, followed by two cycles of sorption and desorption with a scan rate of 5% RH/step over the humidity range of 5% RH to 90% RH. The DMS run was performed isothermally at 25° C.

Chain of JAK1 (P23458 whole entry): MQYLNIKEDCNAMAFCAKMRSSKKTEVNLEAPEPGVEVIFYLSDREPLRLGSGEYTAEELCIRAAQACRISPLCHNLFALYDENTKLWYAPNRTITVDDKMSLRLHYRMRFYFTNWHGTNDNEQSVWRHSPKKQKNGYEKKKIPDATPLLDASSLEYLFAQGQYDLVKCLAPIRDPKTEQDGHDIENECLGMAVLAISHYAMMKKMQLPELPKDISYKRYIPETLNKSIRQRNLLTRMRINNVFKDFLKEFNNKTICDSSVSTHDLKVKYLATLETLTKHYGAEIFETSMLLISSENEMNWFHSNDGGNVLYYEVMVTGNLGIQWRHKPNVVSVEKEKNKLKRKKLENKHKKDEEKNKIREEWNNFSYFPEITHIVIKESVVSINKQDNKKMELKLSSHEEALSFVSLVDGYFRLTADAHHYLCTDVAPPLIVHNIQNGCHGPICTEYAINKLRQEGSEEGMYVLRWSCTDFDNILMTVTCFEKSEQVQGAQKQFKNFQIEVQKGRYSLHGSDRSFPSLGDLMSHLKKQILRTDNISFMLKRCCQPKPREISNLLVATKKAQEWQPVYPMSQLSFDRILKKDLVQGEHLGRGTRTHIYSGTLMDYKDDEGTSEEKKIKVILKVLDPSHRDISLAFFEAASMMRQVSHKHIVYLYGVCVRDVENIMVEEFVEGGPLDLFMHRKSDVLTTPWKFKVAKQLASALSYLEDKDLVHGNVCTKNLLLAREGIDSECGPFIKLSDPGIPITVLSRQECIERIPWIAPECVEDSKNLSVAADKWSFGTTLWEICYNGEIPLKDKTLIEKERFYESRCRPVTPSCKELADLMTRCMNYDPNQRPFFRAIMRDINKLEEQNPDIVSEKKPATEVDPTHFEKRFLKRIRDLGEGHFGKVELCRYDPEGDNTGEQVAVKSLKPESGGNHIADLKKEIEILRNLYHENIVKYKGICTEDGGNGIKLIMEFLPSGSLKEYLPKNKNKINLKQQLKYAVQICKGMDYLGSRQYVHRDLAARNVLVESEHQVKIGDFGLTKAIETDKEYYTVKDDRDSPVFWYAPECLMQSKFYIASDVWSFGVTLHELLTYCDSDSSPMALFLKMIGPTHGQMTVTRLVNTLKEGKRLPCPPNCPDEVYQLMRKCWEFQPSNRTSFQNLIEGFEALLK

Row | weight gain (weight change) on moisture sorption [3] | SMILES | pSTAT6 inhibition in the pharmacodynamic assay [1] | lung concentration smaller than that of the corresponding compound of the invention by a factor of [1] | fold less potent than the corresponding compound of the invention in the enzyme assay [2] [fold]
1 | – | CCc1cc(O)c(F)cc1-c1ccc2c(-c3nc4c([nH]3)CCN(C3CN(C5CCS(=O)(=O)C5)C3)C4)n[nH]c2c1 (centres unmarked) [Example 1-15] | exceptions | – | –
2 | – | CCc1cc(O)c(F)cc1-c1ccc2c(-c3nc4c([nH]3)CCN(C3CCC(C)CC3)C4)n[nH]c2c1 (centres unmarked) [Example C-4] | – | 23 | 2.5
3 | – | CCc1cc(O)c(F)cc1-c1ccc2c(-c3nc4c([nH]3)CCN(CC3CCCOC3)C4)n[nH]c2c1 (centres unmarked) [Example C-3] | – | 13 | 6
4 | – | CCc1cc(O)c(F)cc1-c1ccc2c(-c3nc4c([nH]3)CCN(CCNC3(C#N)CC3)C4)n[nH]c2c1 [Example 3-1] | exceptions | – | –
5 | – | CCc1cc(O)c(F)cc1-c1ccc2c(-c3nc4c([nH]3)CCN(C3CC(C)C3)C4)n[nH]c2c1 (centres unmarked) [Example C-1, 5-Ethyl-2-fluoro-4-(3-(5-(3-methylcyclobutyl)-4,5,6,7-tetrahydro-1H-imidazo[4,5-c]pyridin-2-yl)-1H-indazol-6-yl)phenol] | – | 36 | 2
6 | less than 0.12% | CCc1cc(O)c(F)cc1-c1ccc2c(-c3nc4c([nH]3)CCN(C3CCN(C)CC3)C4)n[nH]c2c1 [crystalline hydrate, 5-ethyl-2-fluoro-4-(3-(5-(1-methylpiperidin-4-yl)-4,5,6,7-tetrahydro-1H-imidazo[4,5-c]pyridin-2-yl)-1H-indazol-6-yl)phenol] | – | – | –
7 | – | CCc1cc(O)c(F)cc1-c1ccc2c(-c3nc4c([nH]3)CCN(CCC(C)C)C4)n[nH]c2c1 [Example C-2] | – | 52 | 3
